Source: patent publication EP0444854B1, “6-Substituted hexahydrobenz[cd]indoles” (ELI LILLY AND COMPANY, priority 1990, dated 1991)

molecular target: T1, 5-HT1A receptors (Rattus norvegicus, UniProt P19327); assay: Inhibition of 3H-8-OH-DPAT binding to synaptosomal membranes from rat cerebral cortex; set-up: species or system Male Sprague-Dawley rats; conditions: 0.4 nM 3H-8-OH-DPAT, 37°C, 10 min, read-out: IC50 (concentration in nanomoles which inhibited binding of 8-OH-DPAT by 50%)
T1 construct: from tissue; host or cells: rat cerebral cortex, crude synaptosomal membranes
T1 sequence (P19327 1-422): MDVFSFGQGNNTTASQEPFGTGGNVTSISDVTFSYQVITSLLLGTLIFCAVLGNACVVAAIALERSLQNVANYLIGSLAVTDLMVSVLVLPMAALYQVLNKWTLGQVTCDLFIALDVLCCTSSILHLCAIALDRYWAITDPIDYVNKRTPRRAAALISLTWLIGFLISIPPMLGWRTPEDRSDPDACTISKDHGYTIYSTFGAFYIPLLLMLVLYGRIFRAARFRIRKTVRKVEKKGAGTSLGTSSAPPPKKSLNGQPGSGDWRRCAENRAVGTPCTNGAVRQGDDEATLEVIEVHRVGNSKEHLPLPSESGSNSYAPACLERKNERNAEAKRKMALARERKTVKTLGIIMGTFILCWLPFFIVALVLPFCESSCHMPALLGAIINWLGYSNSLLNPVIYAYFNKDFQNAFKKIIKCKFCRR
Description: This general procedure is set forth in Wong et al., J. Neural Transm. 71:207-218 (1988).
Male Sprague-Dawley rats (110-150 g) from Harlan Industries (Cumberland, IN) were fed a Purina Chow ad libitum for at least 3 days before being used in the studies. Rats were killed by decapitation. The brains were rapidly removed, and the cerebral cortices were dissected out at 4°C.
Brain tissues were homogenized in 0.32 M sucrose. After centrifugation at 1000 x g for 10 min and then at 17000 x g for 20 min, a crude synaptosomal fraction was sedimented. The pellet was suspended in 100 vol of 50 mM Tris-HCl, pH 7.4, incubated at 37°C for 10 min, and centrifuged at 50000 x g for 10 min. The process was repeated and the final pellet was suspended in ice-chilled 50 mM Tris-HCl, pH 7.4. By the radioligand binding method, sites specifically labeled by tritiated 8-hydroxy-2-dipropylamino-1,2,3,4-tetrahydronaphthalene (^3H-8-OH-DPAT) have been identified as 5-HT1A receptors.
Binding of (^3H-8-OH-DPAT) was performed according to the previously described method [Wong et al., J. Neural Transm. 64:251-269 (1985)]. Briefly, synaptosomal membranes isolated from cerebral cortex were incubated at 37°C for 10 min. in 2 ml of 50 mM Tris-HCl, pH 7.4; 10 µM pargyline; 0.6 mM ascorbic acid; 0.4 nM ^3H-8-OH-DPAT; and from […] of test compound. Binding was terminated by filtering samples under reduced pressure through glass fiber (GFB) filters. The filters were washed twice with 5 ml of ice cold buffer and placed in scintillation vials with 10 ml of PCS (Amersham/Searle) scintillation fluid. Radioactivity was measured with a liquid scintillation spectrometer. Unlabeled 8-OH-DPAT at 10 µM was also included in separate samples to establish non-specific binding. Specific binding of ^3H-8-OH-DPAT is defined as the difference of radioactivity bound in the absence and in the presence of 10 µM unlabeled 8-OH-DPAT.
For these compounds which inhibited the binding of ^3H-8-OH-DPAT by less than 50%, the percent of inhibition is given in parenthesis.

SMILES	IC50
CCCN(CCC)[C@@H]1Cc2c(C(N)=O)ccc3c2[C@H](CN3)C1 [Example 9, (2aR,4S)-4-(di-n-propylamino)-6-aminocarbonyl-1,2,2a,3,4,5-hexahydrobenz[c,d]indole]	11 nM
CCCN(CCC)[C@H]1Cc2c(C(N)=O)ccc3c2[C@@H](CN3)C1 [Example 10, (2aS, 4R)-4-(di-n-propyl)-6-aminocaronyl-1,2,2a,3,4,5-hexahydrobenz[c,d]indole]	2.1 nM
CCCN(CCC)[C@H]1Cc2c(C(=O)OC)ccc3c2[C@@H](CN3)C1 [Example 11, Methyl (2aS,4R)-4-(Di-n-propylamino)-1,2,2a,3,4,5-hexahydrobenz[c,d]indole-6-carboxylate]	5.7 nM
CCCN(CCC)[C@H]1Cc2c(C(=O)N(C)C)ccc3c2[C@@H](CN3)C1 [Example 12, (2aS,4R)-N,N-Dimethyl-4-(di-n-propylamino)-1,2,2a,3,4,5-hexahydrobenz[cd]indole-6-carboxamide]	5.1 nM

same assay, conditions: at 100 nanomoles of test compound, 0.4 nM 3H-8-OH-DPAT, read-out: percent of inhibition of binding of 8-OH-DPAT at 100 nanomoles if less than 50%

SMILES	inhibition at 0.1 µM
N[C@@H]1Cc2c(Br)ccc3c2[C@@H](C1)CN3C(=O)c1ccccc1 [Example 1, (2aR,4S)-1-benzoyl-4-amino-6-bromo-1,2,2a,3,4,5-hexahydrobenz[cd]indole]	6%
CCCN(CCC)[C@@H]1Cc2c(Br)ccc3c2[C@@H](C1)CN3C(=O)c1ccccc1 [Example 3, (2aR, 4S)-1-Benzoyl-4-(di-n-propyl)-amino-6-bromo-1,2,2a,3,4,5-hexahydrobenz[cd]indole]	5%
CCCN(CCC)[C@@H]1Cc2c(C#N)ccc3c2[C@@H](C1)CN3C(=O)c1ccccc1 [Example 5, (2aR,4S)-1-benzoyl-4-(di-n-propyl)amino-6-cyano-1,2,2a,3,4,5-hexahydrobenz[cd]indole]	11%
CCCN(CCC)[C@@H]1Cc2c(C#N)ccc3c2[C@H](CN3)C1 [Example 7, (2aR,4S)-4-(di-n-propyl)amino-6-cyano-1,2,2a,3,4,5-hexahydrobenz[cd]indole]	21%
